The source of these data is publication PMC4406453, “A highly conserved, inhibitable astacin metalloprotease from Teladorsagia circumcincta is required for cuticle formation and nematode development^” (International Journal for Parasitology, 2015).

This assay deals with T1, recombinant T. circumcincta DPY-31 (Tc rDPY-31) (Teladorsagia circumcincta, UniProt A0A0C5PRQ1).
T1 construct: catalytic astacin domain only (684 bp codon-optimised synthetic gene), His-tagged, pET-28a(+) NdeI/XhoI, E. coli BL21 (DE3), Ni-NTA, 23 kDa; full-length precursor 614 residues
T1 sequence (A0A0C5PRQ1 151-378 limits assumed): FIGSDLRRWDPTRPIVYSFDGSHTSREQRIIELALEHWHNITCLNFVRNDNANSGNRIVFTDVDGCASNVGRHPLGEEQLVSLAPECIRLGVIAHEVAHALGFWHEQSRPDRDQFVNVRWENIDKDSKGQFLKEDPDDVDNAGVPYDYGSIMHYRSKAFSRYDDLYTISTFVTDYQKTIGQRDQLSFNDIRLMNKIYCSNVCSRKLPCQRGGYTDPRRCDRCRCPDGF
As to the kind of experiment: chromogenic protease assay, Suc-Ala-Ala-Ala-pNA, […] nm. The class given is biochemical. Conditions: read-out: Effective concentration against T. circumcincta rDPY-31 ^d.

For `CCCCC[C@H](CC(=O)NO)C(=O)N[C@H](C(=O)N1CCC[C@H]1CO)C(C)C` [Actinonin], the IC50 was found to be 50 µM.
